15 compounds from EP4563579A1, “MACROCYCLIC EGFR INHIBITOR, AND PREPARATION METHOD THEREFOR AND PHARMACEUTICAL USE THEREOF” (Abbisko Therapeutics Co., Ltd., priority 2022, dated 2024) can be followed below.

Holding throughout (format): cell-based
One assay concerns A431 WT. As to the kind of experiment: Cell proliferation assay (CellTiter-Glo), A431 WT. Particulars: A431 WT cells, 72 hour incubation, CTG readout. How it is done: (§1) • DMEM Medium (Gibco, Cat#11965118) • RPMI1640 Medium (Gibco, Cat#11875119) • Fetal Bovine Serum (FBS) (GBICO, Cat#10099-141) • CellTiter-Glo® Luminescent Cell Viability Assay Kit (Promega, Cat#G7572) 96-well, Black, Clear Flat Bottom Plate (Corning®, Cat# 3603)
(§2) • SpectraMax Multimode Microplate Reader MD, 2104-0010A; • CO2 Incubator, Thermo Scientific 3100 Series; • Biosafety Cabinet, Thermo Scientific, 1300 Series A2; • Inverted Microscope, Olympus, CKX41SF; • Siemens Refrigerator, KK25E76TI.
(§3) • 1. Cell Culture and Inoculation: • (1) Harvest cells in a logarithmic growth phase and count the cells using a […]. Test cell viability using a trypan blue exclusion method to ensure that cell viability is above 90%. • (2) Adjust the cell concentration to desired final density; and add 90 µL of cell suspension to a 96-well plate. • (3) Incubate the cells overnight at 37°C, under 5% CO2 and 95% humidity in the 96-well plate. • 2. T0 Reference Data: • (1) Add 10 µL PBS to each well of the T0 plate containing cells. • (2) Thaw the CTG reagent and equilibrate the plate to room temperature for 30 minutes. • (3) Add an equal volume of CTG solution to each well. • (4) Lyse cells by shaking on an orbital shaker for 5 minutes. • (5) Leave the plate at room temperature for 20 minutes to stabilize the luminescence signal. • (6) Read the T0 […]. • 3. Compound Dilution and Addition • (1) Add a corresponding volume of DMSO to a corresponding compound powder according to the compound information sheet to prepare a 10 mM stock solution. • (2) Prepare 1000-fold and 3.16-fold diluted compound solutions. • (3) Dilute the 1000× diluted compound solution 100-fold with PBS to prepare a 10-fold compound solution, with a maximum concentration of 10 µM, nine concentrations and 3.16-fold dilution. Then add 10 µL of the drug solution concentration to individual wells of the 96-well plate seeded with cells. Test each compound concentration in triplicate wells, and the final DMSO concentration is 0.1%. • (4) Incubate the cells in the 96-well plate containing the drug compounds at 37°C, under 5% CO2, and 95% humidity for an additional 72 hour period prior to performing the CTG analysis. • 4. Fluorescence Signal Reading • (1) Thaw the CTG reagent and equilibrate the plate to room temperature for 30 minutes. • (2) Add an equal volume of CTG solution to each well. • (3) Lyse cells by shaking on an orbital shaker for 5 minutes. • (4) Leave the plate at room temperature for 20 minutes to stabilize the […]. • (5) Read fluorescence value. • 5. Data Processing
(§4) Analyze the data by using GraphPad Prism 7.0 software, and use Non-linear S-curve regression to fit the dose-response curves, to calculate the IC50 values (in nM). The specific experiment results are presented in Table 1: [formula] Table 1: Biology Test Results
(In general: In ATP-based viability assays light output follows the ATP content of the culture.)

Assay [1] concerns Ba/F3 EGFR-L858R-C797S (LC). As to the kind of experiment: Cell proliferation assay (CellTiter-Glo), Ba/F3 LC. Conditions: Ba/F3 EGFR-L858R-C797S cells, 72 hour incubation, CTG readout. How it is done:
as §1, §2, §3, §4

Assay [2] deals with Ba/F3 EGFR-L858R-T790M-C797S (LTC). As to the kind of experiment: Cell proliferation assay (CellTiter-Glo), Ba/F3 LTC. Particulars: Ba/F3 EGFR-L858R-T790M-C797S cells, 72 hour incubation, CTG readout. How it is done: as §1, §2, §3, §4

SMILES strings stand for the structures. Like-named read-outs stand apart in the source and are kept apart here.

Usually IC50 stands for the midpoint of a concentration-inhibition curve. `COCC[C@H]1CCN(c2nn3c4cc(ncc24)Nc2ccnc(n2)-c2cnn(C)c2OCC2(CCCC2)C3)C1` [Example 19, (R)-3'-(3-(2-methoxyethyl)pyrrolidin-1-yl)-1'-methyls piro(cyclopentane-1,6'-8-oxa-3-aza-4(6,1)-pyrazolo[4,3-c]pyridina-2(2,4)-pyrimidina-1(4,5)-pyrazolacyclooctaphane)]: the IC50 in the assay on A431 WT (Homo sapiens, A-431) is 771 nM; in assay [1] (Mus musculus, BaF3), 19.5 nM; in assay [2] (Mus musculus, BaF3), 11.3 nM.

Consider `Cn1ncc2c1OCC1(CCCC1)Cn1nc(N3CCC(NS(C)(=O)=O)C3)c3cnc(cc31)Nc1ccnc-2n1` (stereo in doubt) [Example 52, (R)-N-(1-(1'-methylspiro(cyclopentane-1,6'-8-oxa-3-aza-4(6,1)-pyrazolo[4,3-c]pyridina-2(2,4)-pyrimidina-1(4,5) -pyrazolacyclooctaphane)-3' -yl)pyrrolidin-3-yl)methanes ulfonamide], for which the IC50 was 261 nM in the assay on A431 WT (Homo sapiens, A-431); 31 nM in assay [1] (Mus musculus, BaF3); 16.4 nM in assay [2] (Mus musculus, BaF3).

For the compound `CN1CCC(F)(C#Cc2nn3c4cc(ncc24)Nc2ccnc(n2)-c2cnn(C)c2OCC2(CCC2)C3)CC1` [Example 12, 3'-((4-fluoro-1-methylpiperidin-4-yl)ethynyl)-1'-methyls piro(cyclobutane-1,6'-8-oxa-3-aza-4(6,1)-pyrazolo[4,3-c]pyridina-2(2,4)-pyrimidina-1 (4,5)-pyrazolacyclooctaphane)], the IC50 amounted to 629 nM with A431 WT (Homo sapiens, A-431); 124 nM in assay [1] (Mus musculus, BaF3); 61.9 nM in assay [2] (Mus musculus, BaF3).

For `Cn1ncc2c1OCC1(CCCC1)Cn1nc(C#CC3CCNCC3)c3cnc(cc31)Nc1ccnc-2n1` [Example 6, 1'-methyl-3'-(piperidin-4-ylethynyl)spiro(cyclopentane-1,6'-8-oxa-3-aza-4(6,1)-pyrazolo[4,3-c]pyridina-2(2,4)-pyrimidina-1(4,5)-pyrazolacyclooctaphane)], the 50% inhibitory concentration (IC50) in the assay on A431 WT (Homo sapiens, A-431) was determined as 1360 nM; in assay [1] (Mus musculus, BaF3), 35.6 nM; in assay [2] (Mus musculus, BaF3) it was 28.3 nM.

`CO[C@H]1CCN(c2nn3c4cc(ncc24)Nc2ccnc(n2)-c2cnn(C)c2OCC2(CCCC2)C3)C1` [Example 16, (S)-3'-(3-methoxypyrrolidin-1-yl)-1'-methylspiro(cyclopentane-1,6'-8-oxa-3-aza-4(6,1)-pyrazolo[4,3-c]pyridina-2(2,4)-pyrimidina-1(4,5)-pyrazolacyclooctaphane)]: the half-maximal inhibitory concentration (IC50) is 482 nM in the assay on A431 WT (Homo sapiens, A-431); 23.8 nM in assay [1] (Mus musculus, BaF3); 13.3 nM in assay [2] (Mus musculus, BaF3).

For `Cn1ncc2c1OCC1(CCCC1)Cn1nc(N3CC[C@H](NC(=O)OC(C)(C)C)C3)c3cnc(cc31)Nc1ccnc-2n1` [Example 47, Tert-butyl (S)-(1-(1'-methylspiro(cyclopentane-1,6'-8-oxa-3-aza-4(6,1)-pyrazolo[4,3-c]pyridina-2(2,4)-pyrimidina-1(4,5) -pyrazolacyclooctaphane)-3 '-yl)pyrrolidin-3-yl)carbam ate], the half-inhibitory concentration (IC50) is 2570 nM in the assay with A431 WT (Homo sapiens, A-431); 82 nM in assay [1] (Mus musculus, BaF3); 35.2 nM in assay [2] (Mus musculus, BaF3).

Consider `C[C@H]1CCOc2c(cnn2C)-c2nccc(n2)Nc2cc3c(cn2)c(C#CC2CCN(C)CC2)nn31` [Example A3, (S)-1^1,5-dimethyl-4^3-((1-methylpiperidin-4-yl)ethynyl)-1^1H,4^1H-8-oxa-3-aza-4(6,1) -pyrazolo[4,3-c]pyridina-2(2,4)-pyrimidina-1(4,5)-pyra zolacyclooctaphane], for which the IC50 in the assay on A431 WT (Homo sapiens, A-431) was determined as 1840 nM; in assay [1] (Mus musculus, BaF3), 53.3 nM; in assay [2] (Mus musculus, BaF3), 62.1 nM.

As for `Cn1ncc2c1OCC1(CCCC1)Cn1nc(N3CC[C@@H](NC(=O)C(F)(F)F)C3)c3cnc(cc31)Nc1ccnc-2n1` [Example 50], the concentration for half-maximal inhibition (IC50) with A431 WT (Homo sapiens, A-431) is 1060 nM; in assay [1] (Mus musculus, BaF3), 86.5 nM; in assay [2] (Mus musculus, BaF3), 20.7 nM.

For `COCC[C@@H]1CCN(c2nn3c4cc(ncc24)Nc2ccnc(n2)-c2cnn(C)c2OCC2(CCCC2)C3)C1` [Example 18, (S)-3'-(3-(2-methoxyethyl)pyrrolidin-1-yl)-1'-methylspi ro(cyclopentane-1,6'-8-oxa-3-aza-4(6,1)-pyrazolo[4,3-c]pyridina-2(2,4)-pyrimidina-1(4,5)-pyrazolacyclooctaphane)], the IC50 in the assay on A431 WT (Homo sapiens, A-431) worked out at 765 nM; in assay [1] (Mus musculus, BaF3) it was 25.4 nM; in assay [2] (Mus musculus, BaF3) it was 10.9 nM.

Take `Cn1ncc2c1OCC1(CCCC1)Cn1nc(N3CC[C@H](C(C)(C)O)C3)c3cnc(cc31)Nc1ccnc-2n1` [Example 20, (S)-2-(1-(1'-methylspiro[cyclopentane-1,6'-8-oxa-3-aza-4(6,1)-pyrazolo[4,3-c]pyridina-2(2,4)-pyrimidina-1(4,5)-pyrazolacyclooctaphane]-3'-yl)pyrrolidin-3-yl)propan-2-ol]: the IC50 with A431 WT (Homo sapiens, A-431) amounted to 512 nM; in assay [1] (Mus musculus, BaF3), 38 nM; in assay [2] (Mus musculus, BaF3), 16 nM.

As for `Cn1ncc2c1OCC1(CCCC1)Cn1nc(N3CC[C@H](NC(=O)C(F)(F)F)C3)c3cnc(cc31)Nc1ccnc-2n1` [Example 56], the IC50 is 843 nM in the assay on A431 WT (Homo sapiens, A-431); 36.5 nM in assay [1] (Mus musculus, BaF3); 12.5 nM in assay [2] (Mus musculus, BaF3).

Regarding `COC[C@@H]1CCN(c2nn3c4cc(ncc24)Nc2ccnc(n2)-c2cnn(C)c2OCC2(CCCC2)C3)C1` [Example 17, (R)-3'-(3-(methoxymethyl)pyrrolidin-1-yl)-1'-methyls piro(cyclopentane-1,6'-8-oxa-3-aza-4(6,1)-pyrazolo[4,3-c]pyridina-2(2,4)-pyrimidina-1(4,5)-pyrazolacyclooctaphane)], the IC50 with A431 WT (Homo sapiens, A-431) was 391 nM; in assay [1] (Mus musculus, BaF3), 32.1 nM; in assay [2] (Mus musculus, BaF3), 7.8 nM.

For `CC(=O)N[C@@H]1CCN(c2nn3c4cc(ncc24)Nc2ccnc(n2)-c2cnn(C)c2OCC2(CCCC2)C3)C1` [Example 49], the IC50 in the assay on A431 WT was 926 nM; in assay [1] (read-out: IC50 BaF3 LC), 59.9 nM; in assay [2] (read-out: IC50 BaF3 LTC) it was 29.6 nM.

`Cn1ncc2c1OCC1(CCCC1)Cn1nc(N3CCC(F)(F)C3)c3cnc(cc31)Nc1ccnc-2n1` [Example 15, 3'-(3,3-difluoropyrrolidin-1-yl)-1'-methylspiro(cyclopentane-1,6'-8-oxa-3-aza-4(6, 1)-pyrazolo[4,3-c]pyridina-2(2,4)-pyrimidina-1(4,5)-pyrazolacyclooctaphane)]: the half-inhibitory concentration (IC50) in the assay on A431 WT (Homo sapiens, A-431) was 1050 nM; in assay [1] (Mus musculus, BaF3), 84.4 nM; in assay [2] (Mus musculus, BaF3), 32.4 nM.

For the compound `C[C@H]1CCOc2c(cnn2C)-c2nccc(n2)Nc2cc3c(cn2)c(C#CC2CN(C)C2)nn31` [Example A2, (S)-1^1,5-dimethyl-4^3-((1-methylazetidin-3-yl)ethynyl)-1^1 H,4^1H-8-oxa-3-aza-4(6,1)-p yrazolo[4,3-c]pyridina-2(2,4)-pyrimidina-1(4,5)-pyrazol acyclooctaphane], the IC50 in the assay on A431 WT (Homo sapiens, A-431) stood at 2490 nM; in assay [1] (Mus musculus, BaF3) it was 176 nM; in assay [2] (Mus musculus, BaF3), 167 nM.
